Results published in patent publication US9476099B2 (TRUSTEES OF DARTMOUTH COLLEGE, priority 2012, dated 2016).

How the values were obtained:
[1] = test system: gene promoters in NT2/D1 cells; experiment: Global DNA promoter methylation analysis, HumanMethylation27 BeadChip; assay type: cell-based, human; conditions: 3 day low dose decitabine
Experimental: However, methylation changes were less robust in the experiments in NT2/D1 cells. Only 12 genes were identified as having significant decreases in promoter methylation. […] These six genes included RIN1, SOX15, TLR4, GPER, TRIM54, and CD164L2.
DNA methylation analysis was performed in samples in triplicate using the […] […] assay with the HumanMethylation27 BeadChip ([…]) and the BeadChip was scanned on the BeadArray Reader ([…]), according to the manufacturer's instructions. Raw data was normalized and analyzed with Genome Studio software ([…]). The HumanMethylation27 BeadChip assays 27,578 CpGs covering more than 14,000 genes, mostly from promoter regions. […] Hierarchical clustering was performed as stated above. HumanMethylation27 BeadChip data and gene expression microarray data were submitted to NCBI GEO.

NT2/D1-R1 cells [2] = experiment: Cell-Titre Glo viable cell growth and survival, 3 day decitabine; assay type: cell-based; conditions: 10 nM, FIG. 1
Experimental: (§1) Indicated doses of decitabine were added fresh each day for three days to exponentially growing cultures. Viable cell growth and survival were measured. Data are normalized to no drug treatment. EC cells are NT2/D1, NT2D1/R1, 833K, 833KCP, and Tera-1. Data are the average of 3 experiments in biological duplicate except for MCF-7 cells, which were assayed twice. Error bars are standard deviation (S.D.).
(§2) Cell growth and viability of five EC cell lines (NT2/D1, NT2D1/R1, 833K, 833KCP, and Tera-1) were determined, including two cell lines that are cisplatin-resistant (NT2/D1-R1 and 833KCP). Three control somatic tumor cell lines were also tested (HCT116, MCF7 and U2OS). […] Viable cell growth and survival were measured using Cell-Titre Glo (Promega) assays. […] These higher values are similar to the values shown in FIG. 1 for somatic tumor cell lines (MCF7, U2OS and HCT116).
(§3) NT2/D1, NT2D1-R1, 833K, 833K-CP, Tera-1, U20S, and HCT116 cells were cultured in DMEM with 10% FBS supplemented with glutamine and antibiotics except for MCF7 cells that were cultured in F12-DMEM. The derivation of the NT2/D1-resistant NT2/D1-R1 cell line has been previously described (Curtin et al. 2001. Oncogene 20:2559-2569; Kerley-Hamilton et al. 2007. Biochim. Biophys. Acta 1769:209-219). Cells were treated with the indicated dosages of 5-azadeoxycytidine (5-aza-CdR) for 3 days. This drug was replenished each day. Cisplatin (Bristol Laboratories) treatments were performed at the concentrations and time points indicated. To assess cell proliferation and survival, CELL-TITRE GLO (Promega) assays were performed.
(§4) Cells were cultured in DMEM media (Gibco) with 10% FBS. Decitabine was added fresh each day. Lentiviral control cells and the stable shRNA DNMT3B knockdown cell line (NT2/D1-R1-sh84) were described previously (Beyrouthy et al. 2009. Cancer Res. 69:9360-9366). DNMT3B knockdown was greater than 90% as confirmed by western blot analysis. Cell proliferation and survival were assessed with the CELL-TITRE GLO assay (Promega). Cell cycle analysis with propidium iodine has been previously described (Kerley-Hamilton et al. 2005. Oncogene 24:6090-6100).

NT2/D1 cells = experiment: as above; assay type: cell-based; conditions: 72 h, read-out: IC50, growth inhibition
Experimental: as §1, §2, §3, §4

[3] = test system: NT2/D1 and NT2/D1-R1 cells expressing DNMT3B-targeting shRNAs; experiment: Decitabine dose-response in DNMT3B shRNA knockdown EC cells; assay type: cell-based, human
Experimental: Data are the average of biological triplicates and are representative of at least two experiments. Error bars are S.D.
Viable cell growth and survival were measured. Data was normalized to no drug treatment. Error bars (within symbols) are standard deviation. * p=<0.05 compared to untreated controls.
(§5) Five distinct lentiviral shRNAs for DNMT3B (sh84, sh85, sh86, sh87, and sh88) were used to knock down DNMT3B expression. Six potential alternatively spliced isoforms of DNMT3B exist; the most biologically relevant isoforms are variants 1, 2, 3 and 6 (Jones, P. A. and S. B. Baylin. 2007. Cell 128:683-692). […] Western blot analysis of NT2/D1 and NT2/D1-R1 cells was also performed with cells treated with DNMT3B shRNA ([…]) and employing DNMT3B antibody, H-230. The results confirmed the reduced expression of DNMT3B when the shRNA were employed. None of the DNMT3B-specific shRNAs affected levels of DNMT1 or DNMT3A (FIG. 2). […] However, knockdown of DNMT3B by itself had no apparent effect on the growth of NT2/D1 or NT2/D1-R1 cells. […] It had been previously reported that cisplatin causes a global p53-dominant transcriptional response in EC cells (Kerley-Hamilton et al. 2005. Oncogene 24:6090-6100). […]
Cells were cultured in DMEM media (Gibco) with 10% FBS. […] Cell proliferation and survival were assessed with the CELL-TITRE GLO assay (Promega). […]

833K cells = experiment: Cell-Titre Glo viable cell growth and survival, 3 day decitabine; assay type: cell-based; conditions: Homo sapiens, 72 h, 3 day treatment, FIG. 1, read-out: IC50, growth inhibition
Experimental: as §1, §2
as §3, with “Cisplatin (Bristol Laboratories) treatments were performed at the concentrations and time points indicated. To assess cell proliferation and survival, CELL-TITRE GLO (Promega) assays were performed.” left out

833K-CP cells [4] = experiment: as above; assay type: cell-based; conditions: 2.5 nM, FIG. 1
Experimental: as §1, §2
as §3, with “Cisplatin (Bristol Laboratories) treatments were performed at the concentrations and time points indicated. To assess cell proliferation and survival, CELL-TITRE GLO (Promega) assays were performed.” left out

[5] = test system: EC cell lines (NT2/D1, NT2D1/R1, 833K, 833KCP, and Tera-1); experiment: Cell-Titre Glo viable cell growth and survival, all EC cell lines; assay type: cell-based; conditions: 10 to 5000 nM added fresh each day for three days; FIG. 1
Experimental: as §1, §2
as §3, with “Cisplatin (Bristol Laboratories) treatments were performed at the concentrations and time points indicated. To assess cell proliferation and survival, CELL-TITRE GLO (Promega) assays were performed.” left out

U87 glioblastomoa cells = experiment: Decitabine treatment of glioblastoma cells; assay type: cell-based; conditions: doses as high as 1 μM
NT2/D1-R1 cells [6] = experiment: Cisplatin sensitivity (cell viability) after low dose decitabine pretreatment; assay type: cell-based; conditions: 10 nM 3 days, 24 hour recovery, cisplatin 6 hours, viability 3 days later
Experimental: (§6) Cell viability was assayed 3 days later. For NT2D1-R1 cells, 10 nM decitabineR was employed. […] Data are the average of biological triplicates and representative of at least two experiments. Error bars are standard error of the mean (SEM).
(§7) Cell viability was assayed 3 days later. For NT2D1-R1 cells, 10 nM decitabineR was employed. […] Data are the average of biological triplicates and representative of at least two experiments. Error bars are SEM.
as §5

833K-CP cells [7] = experiment: as above; assay type: cell-based; conditions: 2.5 nM 3 days, 24 hour recovery, cisplatin 6 hours, viability 3 days later
Experimental: as §6, §7, §5

Nc1ncn([C@H]2C[C@H](O)[C@@H](CO)O2)c(=O)n1 [decitabine, 5-aza-deoxycytidine]
genes with significant decreases in promoter methylation [1]: 12 genes | inhibition of proliferation versus control (NT2/D1-R1 cells [2]): 10% | IC50 (NT2/D1 cells): 5 to 25 nM | effect of DNMT3B knockdown on response to low-dose 3 day decitabine treatment compared to sh-control cells ([3]; NT2/D1-R1 shDNMT3B, FIG. 11): extensive resistance | decitabine sensitivity of cells expressing DNMT3B-targeting shRNAs compared to control cells ([3]; NT2/D1 sh84, NT2/D1-R1 sh84, sh85, sh86, 3 day treatment, FIG. 3): dramatic reduction of decitabine sensitivity | IC50 (833K cells): 5 to 25 nM | inhibition at 0.0025 µM (833K-CP cells [4]): 10% | growth of all EC cell lines [5]: inhibited | effect of decitabine treatment on U87 cells (U87 glioblastomoa cells): unaffected | effect of low dose decitabine pretreatment on cisplatin-induced growth suppression and toxicity (NT2/D1-R1 cells [6]): restored cisplatin-induced growth suppression and toxicity | effect of low dose decitabine pretreatment on cisplatin-induced growth suppression and toxicity (833K-CP cells [7]): restored cisplatin-induced growth suppression and toxicity
